# Legend:
# [1] = system: Sox17 expression in human embryonic stem cell line H1; experiment: Dose titration secondary assay: Sox17 intensity, H1; type: cell-based
# Experimental: (§1) It was important to confirm the activity of hits identified from primary screening and further analyze the range of activity by dose titration. New samples of a selective subset of primary screening hits were obtained as dry powders, solubilized to make fresh stock reagents, and diluted into secondary confirmation assays to evaluate effects on human embryonic stem cells.
# (§2) Culture of two human embryonic stem cells (H1 and H9) was conducted as described in Example 1. Colonies of cells were maintained in an undifferentiated, pluripotent state on Matrigel™ ([…]) coated polystyrene plastic, using a 1:30 dilution of Matrigel™ in DMEM:F12 to coat the surface. Cells were split by enzymatic passage every four days on average. Passage was performed by exposing cell monolayers to a solution of collagenase (1 mg/ml; Sigma-Aldrich) for 10 to 60 minutes at 37° C. followed by gentle scraping with a pipette tip to recover cell clusters. Clusters were allowed to sediment by gravity, then washed to remove residual collagenase. Cell clusters were split at a 1:3 ratio for maintenance culture or a 1:1 ratio for subsequent assay. The human embryonic stem cell lines were maintained at less than passage 50 and routinely evaluated for normal karyotypic phenotype and absence of mycoplasma contamination.
# (§3) Cell clusters of the H1 or H9 human embryonic stem cell lines used in the assay were evenly resuspended in culture medium and plated onto Matrigel™-coated 96-well Packard VIEWPLATES (PerkinElmer) in volumes of 100 μl/well. MEF conditioned medium supplemented with 8 ng/ml bFGF was used for initial plating and expansion. Daily feeding was conducted by aspirating spent culture medium from each well and replacing with an equal volume of fresh medium. Cultures were allowed to expand one to three days after plating prior to initiating assay. Plates were maintained at 37° C., 5% CO2 in a humidified box for the duration of assay.
# (§4) A subset of hits resulting from primary screening was used for follow-up study and subsequent secondary assays. Twenty compounds available as dry powders were solubilized as 10 mM stocks in DMSO and stored dessicated at […] until use Immediately prior to assay, compound stocks were diluted 1:1000 to make 10 μM test compound in DMEM:F12 base medium (Invitrogen) supplemented with 0.5% FCS (HyClone) and 100 ng/ml Activin A (R&D Biosystems). This was further diluted two-fold in series to make a seven point dilution curve for each compound, also in DMEM:F12 base medium with 0.5% FCS and 100 ng/ml Activin A.
# (§5) Assay was initiated by aspirating culture medium from cell monolayers in each well followed by three washes in PBS to remove residual growth factors and serum. Test volumes of 100 μl per well were added back containing medium with 0.5% FCS and different concentrations of inhibitor compounds with 100 ng/ml Activin A, without Wnt3a. Positive control wells contained the same base medium with 0.5% FCS and with 20 ng/ml Wnt3a (R&D Biosystems) in the absence of test compound. Negative control wells contained the same base medium with 0.5% FCS, in the absence of Activin A, Wnt3a, or test compound. Assay wells were aspirated and fed again with identical concentrations of test compound or control solutions on day 2 of assay. On days 3 and 4, all assay wells were aspirated and fed with DMEM:F12 supplemented with 2% FCS and 100 ng/ml Activin A in the absence of both test compound or Wnt3a. Parallel negative control wells were maintained on days 3 and 4 in DMEM:F12 base medium with 2% FCS.
# (§6) At the end of culture, cells in 96-well plates were washed twice with PBS then fixed with 4% paraformaldehyde at room temperature for 20 minutes, washed three times more with PBS, and then permeabilized with 0.5% Triton X-100 for 20 minutes at room temperature. After fixing and permeabilizing, cells were washed again three times with PBS and then blocked with 4% chicken serum (Invitrogen) in PBS for 30 minutes at room temperature. […]
# [2] = system: human embryonic stem cell line H1; experiment: Dose titration secondary assay: cell number, H1; type: cell-based; conditions: positive control (Wnt3a/Activin A) normalized to 1.000; for activity at 0.156 µM / activity at 0.313 µM / activity at 0.625 µM / activity at 1.25 µM / activity at 2.5 µM / activity at 5 µM / activity at 10 µM: Homo sapiens, Embryonic stem cell
# Experimental: as §1, §2, §3, §4, §5, §6
# [3] = MTS viability (toxicity) assay of cells expressing pluripotency markers; type: cell-based, human; conditions: human, MTS on day 4, relative to Activin A + Wnt3a positive control, read-out: % Control (percentage viability of control); for viability at 4 days, 2.5 μM: cmpd conc 2.5 μM; for viability at 4 days, 5 μM: cmpd conc 5 μM; for viability at 4 days, 10 μM: cmpd conc 10 μM
# Outline: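 A GSK-3B inhibitor library was screened for toxicity to pluripotency-marker-expressing cells. Compound was given in DMEM:F12 with 0.5% FCS and 100 ng/ml Activin A for two days, then replaced by medium with 2% FCS and Activin A. On day 4, MTS absorbance at 490 nm gave viability as percent of Activin A plus Wnt3a control wells.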
Structure (SMILES),Sox17 Intensity ([1]; 0.156 μM compound),Sox17 Intensity ([1]; 0.313 μM compound),Sox17 Intensity ([1]; 0.625 μM compound),Sox17 Intensity ([1]; 1.25 μM compound),Sox17 Intensity ([1]; 2.5 μM compound),Sox17 Intensity ([1]; 5 μM compound),Sox17 Intensity ([1]; 10 μM compound),Cell number ([2]; Conc 0.156 μM),Cell number ([2]; Conc 0.313 μM),Cell number ([2]; Conc 0.625 μM),Cell number ([2]; Conc 1.25 μM),Cell number ([2]; Conc 2.5 μM),Cell number ([2]; Conc 5 μM),Cell number ([2]; Conc 10 μM),activity at 0.156 µM ([2]; Conc 0.156 μM) [%],activity at 0.313 µM ([2]; Conc 0.313 μM) [%],activity at 0.625 µM ([2]; Conc 0.625 μM) [%],activity at 1.25 µM ([2]; Conc 1.25 μM) [%],activity at 2.5 µM ([2]; Conc 2.5 μM) [%],activity at 5 µM ([2]; Conc 5 μM) [%],further results
"CCN1CCOCCOCCn2cc(c3ccccc32)C2=C(C(=O)NC2=O)c2cn(c3ccccc23)CC1 [Compound 103, 14-Ethyl-6,7,9,10,13,14,15,16-octahydro-12H,23H-5,26:17,22-di(metheno)dibenzo[k,q]pyrrolo[3,4-n][1,4,7,10,19]dioxatriacyclohenicosine-23,25(24H)-dione]",0.986,0.934,0.824,0.792,0.200,0.017,0.001,1.027,1.028,0.921,0.897,0.566,0.034,0.001,–,–,–,–,–,–,–
"CN1CCN(C)CCn2cc(c3ccccc32)C2=C(C(=O)NC2=O)c2cn(c3ccccc23)CC1 [Compound 111, 8,11-Dimethyl-6,7,8,9,10,11,12,13-octahydro-20H-5,23:14,19-di(metheno)dibenzo[k,q]pyrrolo[3,4-n][1,4,7,10]tetraazacyclooctadecine-20,22(21H)-dione]",0.628,0.667,0.755,0.819,0.887,0.846,0.330,0.659,0.785,0.801,0.914,1.031,1.128,0.412,–,–,–,–,–,–,–
"CN1CCOCCOCCN(C)CCn2cc(c3ccccc32)C2=C(C(=O)NC2=O)c2cn(c3ccccc23)CC1 [Compound 112, 12,21-Dimethyl-11,12,13,14,16,17,20,21,22,23-decahydro-1H,10H,19H-9,4:24,29-di(metheno)dibenzo[k,q]pyrrolo[3,4-n][1,4,7,10,19,22]dioxatetraazacyclotetracosine-1,3(2H)-dione]",0.922,1.006,1.136,1.159,0.928,0.728,0.701,0.912,0.959,1.111,1.200,1.005,0.908,0.996,–,–,–,–,–,–,–
"O=C1NC(=O)C2=C1c1cn(c3ccccc13)CCOCCOCCN(Cc1cccs1)CCn1cc2c2ccccc21 [Compound 133, 14-(2-Thienylmethyl)-6,7,9,10,13,14,15,16-octahydro-12H,23H-5,26:17,22-di(metheno)dibenzo[k,q]pyrrolo[3,4-n][1,4,7,10,19]dioxatriazacyclohenicosine-23,25(24H)-dione]",0.888,0.937,1.061,0.993,0.497,0.071,0.034,0.890,0.888,1.106,1.124,0.592,0.262,0.096,–,–,–,–,–,–,–
"Cc1c[nH]c(-c2cnc(NCCNc3ccc(C#N)cn3)nc2-c2ccc(Cl)cc2Cl)n1 [Compound 221, 6-[(2-{[4-(2,4-Dichlorophenyl)-5-(4-methyl-1H-imidazol-2-yl)pyrimidin-2-yl]amino}ethyl)amino]pyridine-3-carbonitrile]",–,–,–,–,–,–,–,–,–,–,–,–,–,–,108,113,111,112,89.6,88.9,"activity at 10 µM ([2]; Conc 10 μM): 19.3%; viability at 4 days, 2.5 μM [3]: 112%; viability at 4 days, 5 μM [3]: 82.3%; viability at 4 days, 10 μM [3]: 67.5%"
"CC(C)(O)CCn1nc(C2=C(c3cn(-c4cccnc4)c4ccccc34)C(=O)NC2=O)c2ccccc21 [Compound 223, 3-[1-(3-Hydroxy-3-methylbutyl)-1H-indazol-3-yl]-4-(1-pyridin-3-yl-1H-indol-3-yl)-1H-pyrrole-2,5-dione]",–,–,–,–,–,–,–,–,–,–,–,–,–,–,77.6,102,103,116,132,135,"activity at 10 µM ([2]; Conc 10 μM): 128%; viability at 4 days, 2.5 μM [3]: 99.6%; viability at 4 days, 5 μM [3]: 93.9%; viability at 4 days, 10 μM [3]: 83.7%"
"O=C1NC(=O)C(c2nn(CCO)c3ccccc23)=C1c1cn(-c2cncnc2)c2ccccc12 [Compound 226, 3-[1-(2-Hydroxyethyl)-1H-indazol-3-yl]-4-(1-pyrimidin-5-yl-1H-indol-3-yl)-1H-pyrrole-2,5-dione]",–,–,–,–,–,–,–,–,–,–,–,–,–,–,77.4,78.5,80.5,73.9,64,45.8,"activity at 10 µM ([2]; Conc 10 μM): 29%; viability at 4 days, 2.5 μM [3]: 86.3%; viability at 4 days, 5 μM [3]: 86.7%; viability at 4 days, 10 μM [3]: 78.9%"
"O=C1NC(=O)C2=C1Nc1cccc(c1)OCCC/C=C\CCCOc1cccc2c1 [Compound 233, (11Z)-8,9,10,13,14,15-Hexahydro-2,6:17,21-di(metheno)pyrrolo[3,4-h][1,15,7]dioxazacyclotricosine-22,24(1H,23H)-dione]",–,–,–,–,–,–,–,–,–,–,–,–,–,–,83.2,79.1,73.6,63.6,43.8,8.9,"activity at 10 µM ([2]; Conc 10 μM): 0%; viability at 4 days, 2.5 μM [3]: 41.6%; viability at 4 days, 5 μM [3]: 0%; viability at 4 days, 10 μM [3]: 1.5%"

# Reference: patent US20130337564A1, “Treatment of Pluripotent Cells” (Janssen Biotech, Inc., priority 2012, published 2013)
